Consider 25 compounds from patent US20240217969A1, “SUBSTITUTED PYRROLE CARBOXAMIDES, PROCESS FOR THEIR PREPARATION AND THEIR USE AS KINASE INHIBITORS” (priority 2021, published 2024).

In one data set the target is Cdc7 (Homo sapiens, UniProt O00311). Description: Cdc7 biochemical assay, ADPGlo assay format. The protocol: The biochemical activity of compounds was determined by incubation with specific enzymes and substrate, followed by quantification of the ADP product. Compounds were 4-fold serially diluted from 10 to 0.0006 uM; in the case of the pre-incubation step, the enzyme is added to the inhibitor solution and the mixture is left to incubate for 30 minutes at room temperature (r.t.). The reaction started with the addition of the substrate and the ATP, when the enzyme was already present in the preincubation step, or substrate, ATP and enzyme when the preincubation step was not present. The concentrations of ATP, substrate and reaction buffer are described above. The assays were run in a robotized format on 384-well plates. […] At the end of the incubation time, an equal volume of ADPGlo Reagent 1 (Promega) was added to stop the reaction and to remove all unreacted ATP. After 60 minutes, an equal volume of ADPGlo Reagent 2 (Promega) was added to convert ADP in ATP and then ATP in light by luciferase reaction.
Chain of Cdc7 (O00311 whole entry): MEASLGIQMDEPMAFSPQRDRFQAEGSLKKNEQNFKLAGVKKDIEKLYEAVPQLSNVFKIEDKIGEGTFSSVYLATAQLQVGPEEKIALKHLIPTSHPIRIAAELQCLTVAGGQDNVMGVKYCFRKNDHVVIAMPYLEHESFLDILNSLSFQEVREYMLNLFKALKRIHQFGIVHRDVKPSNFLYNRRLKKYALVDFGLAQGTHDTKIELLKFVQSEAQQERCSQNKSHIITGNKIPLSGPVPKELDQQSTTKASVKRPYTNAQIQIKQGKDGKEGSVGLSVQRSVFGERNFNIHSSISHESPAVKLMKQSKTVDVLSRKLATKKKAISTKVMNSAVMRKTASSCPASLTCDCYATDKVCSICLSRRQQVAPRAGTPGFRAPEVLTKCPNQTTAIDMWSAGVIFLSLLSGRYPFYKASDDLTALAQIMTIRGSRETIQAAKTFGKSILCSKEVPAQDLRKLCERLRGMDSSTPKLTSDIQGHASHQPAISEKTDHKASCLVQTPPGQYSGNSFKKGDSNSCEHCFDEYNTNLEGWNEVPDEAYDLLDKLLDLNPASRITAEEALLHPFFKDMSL
Chain of Cdc7 (Q9UBU7 whole entry partner): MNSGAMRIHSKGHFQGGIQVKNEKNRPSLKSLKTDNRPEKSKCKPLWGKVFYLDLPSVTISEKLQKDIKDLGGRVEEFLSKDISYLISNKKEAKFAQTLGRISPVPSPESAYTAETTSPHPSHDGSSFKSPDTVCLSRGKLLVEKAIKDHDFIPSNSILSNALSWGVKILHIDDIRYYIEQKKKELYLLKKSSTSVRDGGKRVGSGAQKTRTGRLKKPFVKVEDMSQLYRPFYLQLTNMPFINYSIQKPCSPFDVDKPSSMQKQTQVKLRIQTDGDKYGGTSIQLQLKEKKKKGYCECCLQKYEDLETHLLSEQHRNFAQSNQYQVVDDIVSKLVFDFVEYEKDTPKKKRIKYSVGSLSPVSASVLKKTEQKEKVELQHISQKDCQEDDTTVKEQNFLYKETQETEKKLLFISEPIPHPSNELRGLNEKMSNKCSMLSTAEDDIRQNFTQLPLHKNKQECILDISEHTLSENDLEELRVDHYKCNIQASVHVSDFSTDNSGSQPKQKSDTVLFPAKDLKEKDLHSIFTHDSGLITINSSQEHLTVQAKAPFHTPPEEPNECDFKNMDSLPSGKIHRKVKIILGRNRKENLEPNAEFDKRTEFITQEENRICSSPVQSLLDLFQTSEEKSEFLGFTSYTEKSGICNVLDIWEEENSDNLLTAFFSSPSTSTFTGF
y=bottom+(top−bottom)/(1+10^((log IC50−x)*slope))
where x is the logarithm of the inhibitor concentration, y is the response; y starts at bottom and goes to top with a sigmoid shape.

Data set [1] deals with T1, aldehyde oxidases (human liver cytosol) (Homo sapiens, UniProt Q06278).
T1 construct: added to human liver cytosol (1 mg/mL protein content); from tissue; host or cells: human liver cytosol
T1 sequence (Q06278 whole entry): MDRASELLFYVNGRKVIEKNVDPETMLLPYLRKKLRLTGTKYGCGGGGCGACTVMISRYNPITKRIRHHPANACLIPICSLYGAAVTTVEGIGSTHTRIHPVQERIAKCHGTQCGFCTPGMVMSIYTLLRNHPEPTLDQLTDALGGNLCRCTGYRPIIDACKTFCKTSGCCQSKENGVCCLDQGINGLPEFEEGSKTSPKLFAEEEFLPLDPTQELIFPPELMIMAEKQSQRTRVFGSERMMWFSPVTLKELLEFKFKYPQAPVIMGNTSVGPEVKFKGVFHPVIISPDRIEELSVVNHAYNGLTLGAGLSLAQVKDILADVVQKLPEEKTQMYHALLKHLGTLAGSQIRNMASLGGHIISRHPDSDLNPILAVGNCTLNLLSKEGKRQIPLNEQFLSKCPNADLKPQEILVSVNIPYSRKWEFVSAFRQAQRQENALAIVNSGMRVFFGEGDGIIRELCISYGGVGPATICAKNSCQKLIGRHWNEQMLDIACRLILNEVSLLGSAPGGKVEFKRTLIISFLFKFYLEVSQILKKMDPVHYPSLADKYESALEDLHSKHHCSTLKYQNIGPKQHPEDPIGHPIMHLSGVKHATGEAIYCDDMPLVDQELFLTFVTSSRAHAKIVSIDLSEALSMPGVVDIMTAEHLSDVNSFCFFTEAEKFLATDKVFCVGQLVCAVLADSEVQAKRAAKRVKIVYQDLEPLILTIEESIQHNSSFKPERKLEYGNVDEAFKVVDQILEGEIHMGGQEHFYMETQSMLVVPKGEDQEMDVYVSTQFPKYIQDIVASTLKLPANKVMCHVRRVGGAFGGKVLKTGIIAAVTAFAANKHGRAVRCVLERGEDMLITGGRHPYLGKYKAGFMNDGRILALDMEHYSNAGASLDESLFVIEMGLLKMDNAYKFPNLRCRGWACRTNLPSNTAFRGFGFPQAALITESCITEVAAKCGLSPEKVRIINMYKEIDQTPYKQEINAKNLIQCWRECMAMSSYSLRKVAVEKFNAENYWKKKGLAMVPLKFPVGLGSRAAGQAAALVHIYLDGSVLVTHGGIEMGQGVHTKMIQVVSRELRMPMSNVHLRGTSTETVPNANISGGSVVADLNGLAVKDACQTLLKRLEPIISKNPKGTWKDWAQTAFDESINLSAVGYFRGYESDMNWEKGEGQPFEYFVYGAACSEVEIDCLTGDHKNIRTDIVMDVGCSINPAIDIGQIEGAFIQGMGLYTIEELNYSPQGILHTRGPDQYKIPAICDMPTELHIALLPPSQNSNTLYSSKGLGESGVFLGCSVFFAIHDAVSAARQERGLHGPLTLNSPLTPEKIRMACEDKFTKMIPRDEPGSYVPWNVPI
It counts as in vitro ADME. Conditions: human liver cytosol 1 mg/mL, 1 μM compound; for HLC % remaining (1 h incub.): 60 min incubation; for HLC % remaining (1 h incub.) / HLC T½ min: pH 7.4, 37° C.; for IntCl (Intrinsic Clearance): half-life approach. The protocol:
The aldehyde oxidases involvement in the metabolism of the test item was determined by comparison of the intrinsic clearance values in the presence and absence of aldehyde oxidases inhibitor hydralazine hydrochloride. The purpose of the study was to evaluate the in-vitro intrinsic clearance, the metabolic stability towards aldehyde oxidases (AO) activity and the metabolism of the test item in human liver cytosol. The intrinsic clearance was determined using the half-life approach, by measuring the substrate disappearance along 60 minutes incubation with human liver cytosol. Incubations were performed at the concentration of 1 μM. […] HPLC-MS/MS was used for the detection of the compound left over during the incubation. For intrinsic clearance determination samples were analyzed by high performance liquid chromatography (HPLC) on-line with mass spectrometry (MS) equipment. For the determination of aldehyde oxidases activity (i.e. positive control) of cytosol, phthalazine was incubated with human liver cytosol in presence and absence of the aldehyde oxidases inhibitor. On the day of the incubation, the compound was dissolved in DMSO at the concentration of 10 mM. Aliquots of this solution were added to the test system to a final concentration of […]. The percentage of DMSO in the final incubates was […]. Aliquots of the test item were added to human liver cytosol (1 mg/mL protein content) in Dulbecco's buffer, pH 7.4 at 37° C., to reach final concentration of 1 μM. Incubations were performed in a 48-well plate, under shaking. At 0, 5, 10, 20, 30 and 60 minutes incubation, 50 μL aliquots of the incubate were sampled, poured in 80 μL of ice-cold acetonitrile and 20 μL of 1 μM warfarin in acetonitrile (injection control) and centrifuged at 2500 rpm for 20 minutes. The supernatant was immediately analysed by LC-MS/MS.
The test item was incubated in parallel, in duplicate, at the concentration of 1 μM in Dulbecco's buffer, pH 7.4 for 60 min at 37° C. in the presence of 10 μM hydralazine hydrochloride (aldehyde oxidases inhibitor).
The chemical stability of the test item was checked in parallel by incubating the test item in single at the concentration of 1 μM in Dulbecco's buffer, pH 7.4 for 60 min at 37° C. (negative control).
The intrinsic clearance (CLint) was calculated using the half-life approach. Half-life and CLint were determined from the concentration (area counts) remaining at the different sampling points using the LC-MS/MS method. By plotting the natural logarithmic area of the compound remaining against the time, the slope was calculated by linear regression analysis and converted into the half-life (t½) and CLint expressed as μL/min/mg protein according to the following formulae: […]

With `NC(=O)c1cc(-c2ccnc3[nH]ccc23)[nH]c1-c1ccc(OC(F)F)cc1Cl` [comp 17, 2-[2-chloro-4-(difluoromethoxy)phenyl]-5-(1H-pyrrolo[2,3-b]pyridin-4-yl)-1H-pyrrole-3-carboxamide], on Cdc7, the IC50 – broadly, the concentration that inhibits the measured activity by half – was found to be 1 nM.

As to `NC(=O)c1cc(-c2csc(N)n2)[nH]c1-c1ccc(Cl)cc1Cl` [compound 45, 5-(2-amino-1,3-thiazol-4-yl)-2-(2,4-dichlorophenyl)-1H-pyrrole-3-carboxamide], in data set [1], the “HLC % remaining (1 h incub.)” value amounted to 98%, the “IntCl (Intrinsic Clearance)” value is given as 2.9 μL/min/mg protein and the “HLC T½ min” value stood at 3.98 h.

Turning to `NC(=O)c1cc(-c2ccnc3[nH]ccc23)n(CCO)c1-c1ccc(Cl)cc1Cl` [compound 54, 2-(2,4-dichlorophenyl)-1-(2-hydroxyethyl)-5-(1H-pyrrolo[2,3-b]pyridin-4-yl)-1H-pyrrole-3-carboxamide], the midpoint of inhibition against Cdc7, the IC50, lay at 418 nM. This lies in the sub-micromolar range.

For the compound `Cc1ccc(-c2[nH]c(-c3ccnc4[nH]ccc34)cc2C(=O)NC2CCN(C)CC2)c(F)c1` [comp 30, 2-(2-fluoro-4-methylphenyl)-N-(1-methylpiperidin-4-yl)-5-(1H-pyrrolo[2,3-b]pyridin-4-yl)-1H-pyrrole-3-carboxamide], the IC50 on Cdc7 is 3130 nM.

With `NC(=O)c1cc(-c2ccnc3[nH]ccc23)[nH]c1-c1ccc(OC(F)(F)F)cc1` [comp 34, 5-(1H-pyrrolo[2,3-b]pyridin-4-yl)-2-[4-(trifluoromethoxy)phenyl]-1H-pyrrole-3-carboxamide], at Cdc7, 42 nM corresponded to half-maximal inhibition (IC50).

Take `NC(=O)c1cc(-c2ccnc3[nH]ccc23)[nH]c1-c1ccc2c(c1)OCCO2` [comp 36, 2-(2,3-dihydro-1,4-benzodioxin-6-yl)-5-(1H-pyrrolo[2,3-b]pyridin-4-yl)-1H-pyrrole-3-carboxamide]: inhibition on Cdc7 was half-maximal at 10 nM (IC50).

At Cdc7, `NC(=O)c1cc(-c2ccnc3[nH]ccc23)n(CCC(F)(F)F)c1-c1ccc(Cl)cc1Cl` [compound 55, 2-(2,4-dichlorophenyl)-5-(1H-pyrrolo[2,3-b]pyridin-4-yl)-1-(3,3,3-trifluoropropyl)-1H-pyrrole-3-carboxamide] showed an IC50 of 996 nM.

As to `Cc1ccc(-c2[nH]c(-c3c[nH]nc3C)cc2C(N)=O)c(F)c1` [compound 52, 2-(2-fluoro-4-methylphenyl)-5-(3-methyl-1H-pyrazol-4-yl)-1H-pyrrole-3-carboxamide], in data set [1], the “HLC % remaining (1 h incub.)” value was determined as 100%, the “IntCl (Intrinsic Clearance)” value came to 2.9 μL/min/mg protein and the “HLC T½ min” value worked out at 3.98 h.

Consider `CCn1c(-c2ccnc3[nH]ccc23)cc(C(N)=O)c1-c1ccc(Cl)cc1Cl` [compound 57, 2-(2,4-dichlorophenyl)-1-ethyl-5-(1H-pyrrolo[2,3-b]pyridin-4-yl)-1H-pyrrole-3-carboxamide], for which the IC50 at Cdc7 came to 17 nM.

Regarding `Cc1ccc(-c2[nH]c(-c3ccnc4[nH]ccc34)cc2C(N)=O)cc1[N+](=O)[O-]` [comp 21, 2-(4-methyl-3-nitrophenyl)-5-(1H-pyrrolo[2,3-b]pyridin-4-yl)-1H-pyrrole-3-carboxamide], the IC50 on Cdc7 amounted to 34 nM.

The compound `NC(=O)c1cc(-c2ccnc3[nH]ccc23)[nH]c1-c1ccc(F)c(F)c1` [comp 19, 2-(3,4-difluorophenyl)-5-(1H-pyrrolo[2,3-b]pyridin-4-yl)-1H-pyrrole-3-carboxamide] had an IC50 against Cdc7 of 15 nM. This IC50 is about 2.3-fold lower than that of the compound before.

Regarding `NC(=O)c1cc(-c2ccnc3[nH]ccc23)[nH]c1-c1cccc(F)c1` [comp 33, 2-(3-fluorophenyl)-5-(1H-pyrrolo[2,3-b]pyridin-4-yl)-1H-pyrrole-3-carboxamide], inhibition against Cdc7 was half-maximal at 14 nM (IC50).

The compound `NC(=O)c1cc(-c2[nH]c(-c3ccnc4[nH]ccc34)cc2C(N)=O)ccc1F` [comp 22, 2-(3-carbamoyl-4-fluorophenyl)-5-(1H-pyrrolo[2,3-b]pyridin-4-yl)-1H-pyrrole-3-carboxamide] registered an IC50 against Cdc7 of 27 nM.

In the case of `Cc1ccc(-c2[nH]c(-c3ccnc4[nH]ccc34)cc2C(N)=O)c(F)c1` [compound 53, 2-(2-fluoro-4-methylphenyl)-5-(1H-pyrrolo[2,3-b]pyridin-4-yl)-1H-pyrrole-3-carboxamide], in data set [1], the “HLC % remaining (1 h incub.)” value worked out at 100%, the “IntCl (Intrinsic Clearance)” value is given as 2.9 μL/min/mg protein and the “HLC T½ min” value amounted to 3.98 h.

At Cdc7, `COc1ccc(-c2[nH]c(-c3ccnc4[nH]ccc34)cc2C(N)=O)c(C(F)(F)F)c1` [comp 16, 2-[4-methoxy-2-(trifluoromethyl)phenyl]-5-(1H-pyrrolo[2,3-b]pyridin-4-yl)-1H-pyrrole-3-carboxamide] had an IC50 of 6 nM.

Regarding `NC(=O)c1cc(-c2ccnc3[nH]ccc23)[nH]c1-c1cccc2c1sc1ccccc12` [comp 31, 2-(dibenzo[b,d]thiophen-4-yl)-5-(1H-pyrrolo[2,3-b]pyridin-4-yl)-1H-pyrrole-3-carboxamide], the IC50 against Cdc7 came to 759 nM.

The compound `CCOc1cccc(-c2[nH]c(-c3ccnc4[nH]ccc34)cc2C(N)=O)c1F` [comp 20, 2-(3-ethoxy-2-fluorophenyl)-5-(1H-pyrrolo[2,3-b]pyridin-4-yl)-1H-pyrrole-3-carboxamide] gave an IC50 against Cdc7 of 5 nM. This IC50 lies about 150-fold lower than the previous one.

The compound `Cc1ccc(-c2[nH]c(-c3ccnc4[nH]ccc34)cc2C(=O)NCc2ccco2)c(F)c1` [comp 27, 2-(2-fluoro-4-methylphenyl)-N-(furan-2-ylmethyl)-5-(1H-pyrrolo[2,3-b]pyridin-4-yl)-1H-pyrrole-3-carboxamide] registered an IC50 against Cdc7 of 61 nM.

As for `Cc1ccc(-c2[nH]c(-c3ccnc4[nH]ccc34)c(I)c2C(N)=O)c(F)c1` [comp 38, 2-(2-fluoro-4-methylphenyl)-4-iodo-5-(1H-pyrrolo[2,3-b]pyridin-4-yl)-1H-pyrrole-3-carboxamide], the IC50 against Cdc7 was 101 nM.

For the compound `NC(=O)c1cc(-c2ccnc3[nH]ccc23)[nH]c1-c1ccc(Cl)c(Cl)c1` [comp 18, 2-(3,4-dichlorophenyl)-5-(1H-pyrrolo[2,3-b]pyridin-4-yl)-1H-pyrrole-3-carboxamide], the IC50 against Cdc7 was found to be 31 nM. Compared with the last compound, the IC50 is about 3.3-fold lower.

For the compound `Cn1c(-c2ccnc3[nH]ccc23)cc(C(N)=O)c1-c1ccc(Cl)cc1Cl` [compound 56, 2-(2,4-dichlorophenyl)-1-methyl-5-(1H-pyrrolo[2,3-b]pyridin-4-yl)-1H-pyrrole-3-carboxamide], on Cdc7, inhibition was half-maximal at 14 nM (IC50).

Regarding `Cc1ccc(-c2[nH]c(-c3ccnc4[nH]ccc34)cc2C(=O)NCCF)c(F)c1` [comp 28, N-(fluoroethyl)-2-(2-fluoro-4-methylphenyl)-5-(1H-pyrrolo[2,3-b]pyridin-4-yl)-1H-pyrrole-3-carboxamide], the IC50 against Cdc7 amounted to 67 nM.

For `Cc1ccc(-c2[nH]c(-c3ccnc4[nH]ccc34)cc2C(N)=O)c2ccccc12` [comp 32, 2-(4-methylnaphthalen-1-yl)-5-(1H-pyrrolo[2,3-b]pyridin-4-yl)-1H-pyrrole-3-carboxamide], the half-inhibitory concentration (IC50) against Cdc7 is 17 nM.

For `Cc1cc(F)ccc1-c1[nH]c(-c2ccnc3[nH]ccc23)cc1C(N)=O` [comp 37, 2-(4-fluoro-2-methylphenyl)-5-(1H-pyrrolo[2,3-b]pyridin-4-yl)-1H-pyrrole-3-carboxamide], 2 nM corresponded to half-maximal inhibition against Cdc7 (IC50).

At Cdc7, `NC(=O)c1cc(-c2ccnc3[nH]ncc23)[nH]c1-c1ccc(Cl)cc1Cl` [compound 47, 2-(2,4-dichlorophenyl)-5-(1H-pyrazolo[3,4-b]pyridin-4-yl)-1H-pyrrole-3-carboxamide] showed an IC50 of 4 nM. Against the preceding compound, the IC50 is about 2-fold higher.
